{"source": "patent US10370436B2", "about": "“Anti-pseudomonas Psl binding molecules and uses thereof” (priority 2011, dated 2019)", "key": {"[1]": {"test_system": "mucoid P. aeruginosa strains derived from cystic fibrosis patients", "assay": "OPK assay, mucoid isolates", "assay_type": "cell-based, Pseudomonas aeruginosa", "conditions": "FIG. 2D", "method": "This example describes the evaluation of prioritized human IgG1 antibodies to promote OPK of P. aeruginosa. […] OPK assays were performed as described in (DiGiandomenico, A., et al., Infect Immun 72, 7012-7021 (2004)), with modifications. Briefly, assays were performed in 96-well plates using 0.025 ml of each OPK component; P. aeruginosa strains; diluted baby rabbit serum; differentiated HL-60 cells; and monoclonal antibody. In some OPK assays, luminescent P. aeruginosa strains, which were constructed as described (Choi, K. H., et al., Nat Methods 2, 443-448 (2005)), were used. Luminescent OPK assays were performed as described above but with determination of relative luciferase units (RLUs) using a Perkin Elmer ENVISION Multilabel plate reader (Perkin Elmer).\nThe ability of Cam-003 to mediate OPK activity against representative non-mucoid strains from clinically relevant O-antigen serotypes and against mucoid P. aeruginosa strains which were derived from cystic fibrosis patients was evaluated."}, "P. aeruginosa PAO1 cells": {"test_system": "P. aeruginosa PAO1 cells", "assay": "Flow cytometry (FACS) whole cell binding", "set-up": "species or system Pseudomonas aeruginosa", "conditions": "PAO1ΔpslA; FIG. 3C", "description": "For IgG expression, the VH and VL chains of selected antibodies were cloned into human IgG1 expression vectors, co-expressed in HEK293 cells, and purified by protein A affinity chromatography as described (Persic, L., et al., Gene 187, 9-18 (1997)). Human IgG1 antibodies made with the variable regions from these selected serotype independent phage were confirmed for P. aeruginosa specificity and prioritized for subsequent analysis by whole cell binding to dominant clinically relevant serotypes by FACS analysis (FIG. 1F), since this method is more stringent than ELISA. For the flow cytometry based binding assays mid-log phase P. aeruginosa strains were concentrated in PBS to an OD650 of 2.0. […] Samples were run on a LSR II flow cytometer (BD Biosciences) and analyzed using BD FacsDiva (v. 6.1.3) and FlowJo (v. 9.2; TreeStar).\nCAM-003 is specific for the P. aeruginosa Psl surface exopolysaccharide and mediates potent OPK activity and protection in multiple in vivo models. […] Conjugation efficiency of PMB-mAbs variants was determined by mass spectrometry analysis of heavy chains in purified conjugates. […] Contamination with free PMB in the purified preparations was determined to be negligible. Binding of PMB-Cam-003 and PMB-A7 conjugates to P. aeruginosa PAO1 cells was evaluated by FACS. […] Samples were stained and analyzed as previously described in Example 1. […]"}, "[2]": {"test_system": "Psl (enriched carbohydrate purified from PAO1ΔwbpL/algD/pelA)", "assay": "Psl capture binding assay (FORTEBIO OCTET 384)", "set-up": "species or system Pseudomonas aeruginosa", "conditions": "FIG. 3K", "method": "To confirm that all of the antibodies bound to the same antigen, a Psl capture binding assay was performed using a FORTEBIO® OCTET® 384 instrument as described above. The antigen was proteinase K-treated enriched carbohydrate purified from PAO1ΔwbpL/algD/pelA (O-antigen-, alginate- and Pel exopolysaccharide-deficient). Individual antibodies were bound to aminopropylsilane biosensors followed by blocking and the addition of the enriched carbohydrate antigen. After washing to remove unbound antigen, binding of unlabelled mAbs to captured antigen was assessed."}, "[3]": {"test_system": "P. aeruginosa strain 6077", "assay": "P. aeruginosa thermal injury model", "assay_type": "in vivo, CF-1 mice", "conditions": "15 and 5 mg/kg; versus antibody-treated control; FIG. 8E", "method": "FIG. 8 (A-G): Anti-Psl monoclonal antibodies Cam-003 and WapR-004 are active in a P. aeruginosa keratitis model and thermal injury model. Mice were treated with a control IgG1 antibody or Cam-003 at 45 mg/kg (A, B) or 15 mg/kg (C, D) or PBS or a control IgG1 antibody or Cam-003 at 45 mg/kg or WapR-004 at 45 mg/kg or 15 mg/kg or 5 mg/kg (F, G) 24 hours prior to infection with 6077 (O11-cytotoxic—2×10^6 CFU). Immediately before infection, three 1 mm scratches were made on the left cornea of each animal followed by topical application of P. aeruginosa in a 5 μl inoculum. 24 hours after infection, the corneal pathology scores were calculated followed by removal of the eye for determination of viable CFU. Differences in pathology scores and viable CFU were determined by the Mann-Whitney U-test. (A) P=0.0001, (B) P<0.0001, (C) P=0.0003, (D) P=0.0015. (F) and (G) Cam-003 (45 mg/kg) vs. WapR-004 (45 mg/kg): P=0.018; Cam-003 (45 mg/kg) vs. WapR-004 (15 mg/kg): P=0.0025; WapR-004 (45 mg/kg) vs. WapR-004 (15 mg/kg): P=0.1331; WapR-004 (5 mg/kg) vs. Ctrl: P<0.0001. Results are representative of five independent experiments. (E) Survival analysis from Cam-003 and R347 treated CF-1 mice in a P. aeruginosa thermal injury model after 6077 infection (2×10^5 CFU) (log-rank: R347 vs. Cam-003 15 mg/kg, P=0.0094; R347 vs. Cam-003 5 mg/kg, P=0.0017). […]"}}, "data": [{"substance": "Cam-003: human IgG1 anti-Psl monoclonal antibody, VH SEQ ID NO: 1 and VL SEQ ID NO: 2", "values": [{"measurement": "OPK activity", "setting": "[1]", "value": "mediated potent killing of all mucoid P. aeruginosa isolates that were tested"}, {"measurement": "FACS binding", "setting": "P. aeruginosa PAO1 cells", "value": "abolished"}, {"measurement": "reactivity of unlabelled mAb to captured Psl", "setting": "[2]", "value": "reacted"}, {"measurement": "capture of Psl antigen by biosensor-bound antibody", "setting": "[2]; antibody bound to aminopropylsilane biosensors", "value": "capable of capturing antigen"}, {"measurement": "protection (survival)", "setting": "[3]", "value": "significant protection"}]}]}
